The record followed here is EP2508526A1, “Spiroalkene carboxamide derivatives and their use as chemokine receptor modulators” (Ares Trading SA, priority 2011, dated 2012).

The term Ki denotes a dissociation constant, usually derived from enzyme kinetics or from competition with a known ligand.

The target of this test is T1, hCCR2b (Homo sapiens, UniProt P41597).
T1 sequence (P41597 1-360 isoform P41597-2): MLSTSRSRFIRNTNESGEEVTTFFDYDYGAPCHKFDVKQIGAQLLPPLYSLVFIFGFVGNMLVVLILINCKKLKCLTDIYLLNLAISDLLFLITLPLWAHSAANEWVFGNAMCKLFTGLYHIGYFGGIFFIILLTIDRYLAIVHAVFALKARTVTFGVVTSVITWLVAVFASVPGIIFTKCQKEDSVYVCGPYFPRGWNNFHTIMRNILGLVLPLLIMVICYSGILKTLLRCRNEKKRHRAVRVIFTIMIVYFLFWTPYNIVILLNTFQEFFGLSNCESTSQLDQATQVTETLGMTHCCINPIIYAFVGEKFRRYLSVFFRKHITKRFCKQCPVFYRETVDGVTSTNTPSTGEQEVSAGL
Briefly: CCR2 binding assay ([125I]MCP-1, SPA, CHO cell membranes). Further details: expressed in transfected cells; host or cells: CHO cells (membrane preparation). The conditions noted are these: membranes from CHO cells expressing hCCR2b, 50 pM [125I]MCP-1; read-out: Binding hCCR2 (Ki). In outline:
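CHO membranes expressing hCCR2b (1–5 µg/well) with 50 pM [125I]MCP-1 and WGA SPA beads in 50 mM HEPES pH 7.4, 5 mM MgCl2, 1 mM CaCl2, 0.1% BSA, 1% DMSO; 90 min RT with agitation. Bound counts on scintillation counter; nonspecific defined by 1000-fold excess unlabeled compound.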
As to `CCN1CCC2(CC1)OC(=O)C(C)=C2C(=O)N1CCN(c2cc(Cl)cc(C(F)(F)F)c2)CC1` [Compound 86, 4-({4-[3-chloro-5-(trifluoromethyl)phenyl]piperazin-1-yl}carbonyl)-8-ethyl-3-methyl-1-oxa-8-azaspiro[4.5]dec-3-en-2-one], the Ki is < 50 nM.
On to `CCN1CCC2(CC1)OC(=O)C(C)=C2C(=O)N1CCN(c2cc(OC)cc(C(F)(F)F)c2)CC1` [Compound 87, 8-ethyl-4-({4-[3-methoxy-5-(trifluoromethyl)phenyl]piperazin-1-yl}carbonyl)-3-methyl-1-oxa-8-azaspiro[4.5]dec-3-en-2-one], for which the Ki was < 50 nM.
As to `CCN1CCC2(CC1)OC(=O)C(C)=C2C(=O)N1CCN(c2cc(C(F)(F)F)cc(C(F)(F)F)c2)CC1` [Compound 88, 4-({4-[3,5-bis(trifluoromethyl)phenyl]piperazin-1-yl}carbonyl)-8-ethyl-3-methyl-1-oxa-8-azaspiro[4.5]dec-3-en-2-one], the Ki was < 50 nM.
For `CCN1CCC2(CC1)OC(=O)C(C)=C2C(=O)NCc1cccc(C(F)(F)F)c1` [Compound 89, 8-ethyl-3-methyl-2-oxo-N-[3-(trifluoromethyl)benzyl]-1-oxa-8-azaspiror[4.5]dec-3-ene-4-carboxamide], the Ki lay in the range of 50 to 100 nM.
With `CCN1CCC2(CC1)OC(=O)C(C)=C2C(=O)N1CCCN(c2cccc(C(F)(F)F)c2)CC1` [Compound 90, 8-ethyl-3-methyl-4-({4-[3-(trifluoromethyl)phenyl]-1,4-diazepan-1-yl}carbonyl)-1-oxa-8-azaspiro[4.5]dec-3-en-2-one], the Ki fell in the range of 50 to 100 nM.
As to `CCN1CCC2(CC1)OC(=O)C(C)=C2C(=O)N1CCCN(c2ccc(C(F)(F)F)cc2)CC1` [Compound 91, 8-ethyl-3-methyl-4-({4-[4-(trifluoromethyl)phenyl]-1,4-diazepan-1-yl}carbonyl)-1-oxa-8-azaspiro[4.5]dec-3-en-2-one], the Ki was 100 to 500 nM.
Next, `CCN1CCC2(CC1)OC(=O)C(C)=C2C(=O)NCCCc1cccc(C(F)(F)F)c1` [Compound 92, 8-ethyl-3-methyl-2-oxo-N-{3-[3-(trifluoromethyl)phenyl]propyl}-1-oxa-8-azaspiro[4.5]dec-3-ene-4-carboxamide]: 100 to 500 nM; `CCN1CCC2(CC1)OC(=O)C(C)=C2C(=O)N1CCN(c2ccc(OC(F)(F)F)cc2)CC1` [Compound 93, 8-ethyl-3-methyl-4-({4-[4-(trifluoromethoxy)phenyl]piperazin-1-yl}carbonyl)-1-oxa-8-azaspiro[4.5]1dec-3-en-2-one]: 100 to 500 nM.
With `CCN1CCC2(CC1)OC(=O)C(C)=C2C(=O)N1CCC(c2cccc(C(F)(F)F)c2)CC1` [Compound 94, 8-ethyl-3-methyl-4-({4-[3-(trifluoromethyl)phenyl]piperidin-1-yl}carbonyl)-1-oxa-8-azaspiro[4.5]dec-3-en-2-one], the Ki fell in the range of 100 to 500 nM.
Take `CCN1CCC2(CC1)OC(=O)C(C)=C2C(=O)N1CCN(c2cc(C(F)(F)F)ccc2OC)CC1` [Compound 95, 8-ethyl-4-({4-[2-methoxy-5-(trifluoromethyl)phenyl]piperazin-1-yl}carbonyl)-3-methyl-1-oxa-8-azaspiro[4.5]dec-3-en-2-one]: the Ki lay within 500 to 2000 nM.
On to `CCN1CCC2(CC1)OC(=O)C(C)=C2C(=O)N1CCN(c2cc(C(F)(F)F)ccc2C)CC1` [Compound 96, 8-ethyl-3-methyl-4-({4-[2-methyl-5-(trifluoromethyl)phenyl]piperazin-1-yl}carbonyl)-1-oxa-8-azaspiro[4.5]dec-3-en-2-one], for which the Ki is 500 to 2000 nM.
Take `CCN1CCC2(CC1)OC(=O)C(C)=C2C(=O)Nc1ccc(-c2cccc(C(F)(F)F)c2)cc1` [Compound 98, 8-ethyl-3-methyl-2-oxo-N-[3'-(trifluoromethyl)biphenyl-4-yl]-1-oxa-8-azaspiro[4.5]dec-3-ene-4-carboxamide]: the Ki lay in the range of 500 to 2000 nM.
Regarding `CCN1CCC2(CC1)OC(=O)C(C)=C2C(=O)NCCc1cccc(C(F)(F)F)c1` [Compound 99, 8-ethyl-3-methyl-2-oxo-N-{2-[3-(trifluoromethyl)phenyl]ethyl}-1-oxa-8-azaspiro[4.5]dec-3-ene-4-carboxamide], the Ki lay within 500 to 2000 nM.
On to `CCN1CCC2(CC1)OC(=O)C(C)=C2C(=O)NCCc1ccc(C(F)(F)F)cc1` [Compound 100, 8-ethyl-3-methyl-2-oxo-N-{2-[4-(trifluoromethyl)phenyl]ethyl}-1-oxa-8-azaspiro[4.5]dec-3-ene-4-carboxamide], for which the Ki lay within 500 to 2000 nM.
For the molecule `CC1=C(C(=O)N2CCN(c3cccc(C(F)(F)F)c3)CC2)C2(CCN(C(C)C)CC2)OC1=O` [Compound 101, 8-isopropyl-3-methyl-4-({4-[3-(trifluoromethyl)phenyl]piperazin-1-yl}carbonyl)-1-oxa-8-azaspiro[4.5]dec-3-en-2-one], the Ki is < 50 nM.
Turning to `CC1=C(C(=O)N2CCN(c3cccc(C(F)(F)F)c3)CC2)C2(CCN(CCc3ccccc3)CC2)OC1=O` [Compound 102, 3-methyl-8-(2-phenylethyl)-4-({4-[3-(trifluoromethyl)phenyl]piperazin-1-yl}carbonyl)-1-oxa-8-azaspiro[4.5]dec-3-en-2-one], the Ki is < 50 nM.
For `CC1=C(C(=O)N2CCN(c3cccc(C(F)(F)F)c3)CC2)C2(CCN(CC(C)C)CC2)OC1=O` [Compound 103, 8-isobutyl-3-methyl-4-({4-[3-(trifluoromethyl)phenyl]piperazin-1-yl}carbonyl)-1-oxa-8-azaspiro[4.5]dec-3-en-2-one], the Ki is < 50 nM.
For `CC1=C(C(=O)N2CCN(c3cccc(C(F)(F)F)c3)CC2)C2(CCN(C(C)Cc3ccccc3)CC2)OC1=O` (stereo not shown) [Compound 104, 3-methyl-8-(1-methyl-2-phenylethyl)-4-({4-[3-(trifluoromethyl)phenyl]piperazin-1-yl}carbonyl)-1-oxa-8-azaspiro[4.5]dec-3-en-2-one] the value was < 50 nM; for `CC1=C(C(=O)N2CCN(c3cccc(C(F)(F)F)c3)CC2)C2(CCN(CC(C)c3ccccc3)CC2)OC1=O` (stereo not shown) [Compound 105, 3-methyl-8-(2-phenylpropyl)-4-({4-[3-(trifluoromethyl)phenyl]piperazin-1-yl}carbonyl)-1-oxa-8-azaspiro[4.5]dec-3-en-2-one], < 50 nM.
`CC1=C(C(=O)N2CCN(c3cccc(C(F)(F)F)c3)CC2)C2(CCN(C3CCCCC3)CC2)OC1=O` [Compound 106, 8-cyclohexyl-3-methyl-4-({4-[3-(trifluoromethyl)phenyl]piperazin-1-yl}carbonyl)-1-oxa-8-azaspiro[4.5]dec-3-en-2-one]: the Ki is < 50 nM.
Regarding `CC1=C(C(=O)N2CCN(c3cccc(C(F)(F)F)c3)CC2)C2(CCN(Cc3cc4ccccc4[nH]3)CC2)OC1=O` [Compound 107, 8-(1H-indol-2-ylmethyl)-3-methyl-4-({4-[3-(trifluoromethyl)phenyl]piperazin-1-yl}carbonyl)-1-oxa-8-azaspiro[4.5]dec-3-en-2-one], the Ki fell in the range of 500 to 2000 nM.
For `CC1=C(C(=O)N2CCN(c3cccc(C(F)(F)F)c3)CC2)C2(CCN(CC(=O)c3ccccc3)CC2)OC1=O` [Compound 108, 3-methyl-8-(2-oxo-2-phenylethyl)-4-({4-[3-(trifluoromethyl)phenyl]piperazin-1-yl}carbonyl)-1-oxa-8-azaspiro[4.5]dec-3-en-2-one], the Ki was in the range of 100 to 500 nM.
Regarding `CC1=C(C(=O)N2CCN(c3cccc(C(F)(F)F)c3)CC2)C2(CCN(Cc3ccccc3)CC2)OC1=O` [Compound 109, 8-benzyl-3-methyl-4-({4-[3-(trifluoromethyl)phenyl]piperazin-1-yl}carbonyl)-1-oxa-8-azaspiro[4.5]dec-3-en-2-one], the Ki fell in the range of 100 to 500 nM.
Consider `CC1=C(C(=O)N2CCN(c3cccc(Cl)c3)CC2)C2(CCN(Cc3ccccc3)CC2)OC1=O` [Compound 110, 8-benzyl-4-{[4-(3-chlorophenyl)piperazin-1-yl]carbonyl}-3-methyl-1-oxa-8-azaspiro[4.5]dec-3-en-2-one], for which the Ki fell in the range of 500 to 2000 nM.
For the molecule `CC1=C(C(=O)N2CCN(c3cccc(C#N)c3)CC2)C2(CCN(Cc3ccccc3)CC2)OC1=O` [Compound 111, 3-{4-[(8-benzyl-3-methyl-2-oxo-1-oxa-8-azaspiro[4.5]dec-3-en-4-yl)carbonyl]piperazin-1-yl}benzonitrile], the Ki fell in the range of 500 to 2000 nM.
Consider `CC1=C(C(=O)N2CCN(c3cccc(Cl)c3)CC2)C2(CCN(C)CC2)OC1=O` [Compound 112, 4-{[4-(3-chlorophenyl)piperazin-1-yl]carbonyl}-3,8-dimethyl-1-oxa-8-azaspiro[4.5]dec-3-en-2-one], for which the Ki was 500 to 2000 nM.
For `CCN1CCC2(CC1)OC(=O)C(C)=C2C(=O)N1CCN(c2ccc(C(F)(F)F)cc2)CC1` [Compound 113, 8-ethyl-3-methyl-4-({4-[4-(trifluoromethyl)phenyl]piperazin-1-yl}carbonyl)-1-oxa-8-azaspiro[4.5]dec-3-en-2-one], the Ki was 500 to 2000 nM.
On to `CCN1CCC2(CC1)OC(=O)C(C)=C2C(=O)N1CCN(c2cc(Cl)cc(Cl)c2)CC1` [Compound 114, 4-{[4-(3,5-dichlorophenyl)piperazin-1-yl]carbonyl}-8-ethyl-3-methyl-1-oxa-8-azaspiro[4.5]dec-3-en-2-one], for which the inhibition constant Ki lay within 100 to 500 nM.
